Patent US20260216142A1, “USES OF ZLN-005 AND RELATED COMPOUNDS” (priority 2022, published 2026)

Legend:
[1] = tested on: CLP sepsis model; test: Echocardiographic measurement at 24 hours post-CLP; type: in vivo, mice; conditions: 24 hours after CLP
Experimental: Chest hair was removed with cream one day before echocardiography was performed using VisualSonics Vevo®@2100 equipped with an 18- to 38-MHz probe (VisualSonics, Toronto, ON, Canada). Mice were anesthetized by inhalation of isoflurane at 24 hours post-CLP. The left ventricle was assessed in the parasternal short-axis view. Left ventricular end-systole or end-diastole was defined as the period when the left ventricular lumen was shortest or most dilated, respectively. Diastolic left ventricular (LV) internal diameters, systolic LV internal diameters, diastolic LV anterior wall, and diastolic LV posterior wall were measured from the LV M-mode tracing at the papillary muscle level. LV wall thickness was calculated as the average of anterior and posterior wall thicknesses.

[2] = tested on: naïve THP-1; test: Expression over time in naïve THP-1; type: cell-based, human
[3] = tested on: cecal ligation and perforation (CLP) model; test: CLP model of sepsis: survival and behavior; type: in vivo, C57BL/6 mice; conditions: 12 mg/kg i.p. daily Day 0 to Day 2
Experimental: Cecal ligation and perforation was performed on C57BL/6 mice about 10 to 20 weeks of age. Mice were administered either ZLN-005 at 12 mg/kg (i.p.) or vehicle (DMSO) at the time of cecal ligation and perforation, 24 hours later, and 48 hours later (FIG. 1A).
C57BL/6 mice were purchased from Shimizu Laboratory Supplies Co., Ltd. (Kyoto, Japan). Mice were housed in specific-pathogen-free conditions with free access to food and water. Mice were anesthetized by inhalation of isoflurane (099-06571, FUJIFILM Wako Pure Chemical Corporation, Tokyo, Japan). A midline incision was made, followed by externalization, and the cecum was then ligated at half the distance between the distal pole and the base of the cecum and punctured with a 21-gauge needle (NN-2116R, Terumo Corporation, Tokyo, Japan). Next, a small amount of fecal mass from the punctured cecum was gently squeezed out to ensure patency of punctures, the cecum was relocated, and 6/0 Ethicon PROLENE Suture (Ethicon, Inc., Raritan, NJ, USA) was used to close the peritoneum and skin. Sham-operated mice underwent only incision and cecum exteriorization. […]
The results are presented as the means±standard deviations. The statistical significance of differences among groups was evaluated using parametric unpaired t tests for bar graphs. […]

[4] = tested on: THP-1 cells; test: Autophagy flux (LC3 conversion, Western blotting) in LPS model of THP-1; type: cell-based, human; conditions: 6 hours LPS followed by 2 or 6 hours autophagy inhibitor (50 nM bafilomycin A1 or 30 nM chloroquine)
Experimental: Cells were incubated at 37° C. in a humidified 5% CO2 incubator. […] After 48 hours, the supernatant of the medium was carefully removed to avoid detaching the cells attached to the bottom of the plate and replaced with new medium containing 1 μM ZLN-005 or DMSO (0.1%) as a control. […] For PI3K inhibition, the cells were seeded in the plate and added 200 nM Wortmannin (AG-CN2-0023-M001, Adipogen Life Sciences Inc.).
Protein levels were quantified using ImageJ™.

CC(C)(C)c1ccc(-c2nc3ccccc3[nH]2)cc1 [ZLN-005, 2-(4-tert-butylphenyl)-1H-benzimidazole]
ejection fraction [1]: ~50%
increase in expression at the protein level ([2]; naïve THP-1, 36 hours (data not shown)): 2 fold
increase in expression at the mRNA level ([2]; naïve THP-1, 48 hours (data not shown)): 2 fold
mice alive at 72 hours ([3]; 72 hours post-CLP): 40%
mice alive after 6 days ([3]; 6 days post-CLP): 30%

CO/C1=C\C(C)=C\[C@@H](C)[C@@H](O)[C@@H](C)C/C(C)=C/C=C/[C@H](OC)[C@@H]([C@@H](C)[C@@H](O)[C@H](C)[C@@]2(O)C[C@@H](O)[C@H](C)[C@@H](C(C)C)O2)OC1=O [bafilomycin A1]
LC3-II and LC3-II/I ratios [4]: increasing with significant differences
